Our source for the EC50 values is patent US20100063065A1 (Inpharmatica Limited, priority 2005, published 2010).

This experiment addresses T1, PPARδ (Homo sapiens, UniProt Q03181).
T1 construct: fused to amino acids 147-441 of PPARδ downstream of CMV promoter; expressed in transfected cells; host or cells: HEK293 cells, transiently transfected with pFACMV-PPARδ using Fugene
T1 sequence (Q03181 147-441): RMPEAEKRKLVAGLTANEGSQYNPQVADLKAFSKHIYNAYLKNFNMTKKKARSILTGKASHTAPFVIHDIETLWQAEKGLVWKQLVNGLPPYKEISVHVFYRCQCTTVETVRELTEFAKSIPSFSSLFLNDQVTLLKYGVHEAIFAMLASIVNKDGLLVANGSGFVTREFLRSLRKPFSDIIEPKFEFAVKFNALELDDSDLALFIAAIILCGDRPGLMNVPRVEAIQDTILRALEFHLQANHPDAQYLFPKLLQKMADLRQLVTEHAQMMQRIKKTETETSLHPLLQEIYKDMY
Kind of experiment: Transactivation assay (PPARδ GAL4 assay) in transiently transfected HEK293 cells. Particulars: luciferase reporter. The class given is cell-based. The essentials: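 HEK293 cells transiently co-transfected with GAL4 DBD (aa 1-147)–PPARδ (aa 147-441) fusion and 5×GAL4-luciferase reporter, then exposed 24 h to compound (final 0-30 μM) in OptiMEM at 37° C. Luminescence read; activity as percent of GW501516 control, EC50 from sigmoidal dose-response fit.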

Each structure is given as a SMILES string.

As for `CCc1cc(C(=O)c2ccc(OC(F)(F)F)cc2)c(NC(=O)CC2(CC(=O)O)CCCC2)s1` [Example 4, (1-{[5-Ethyl-3-(4-trifluoromethoxy-benzoyl)-thiophen-2-ylcarbamoyl]-methyl}-cyclopentyl)-acetic acid], the EC50 (Table 1) lay in the range of 0.1 to 1 µM. Same read-out and setting: to `CCc1cc(C(=O)c2ccc(OC(F)(F)F)cc2)c(NC(=O)CNC(CC(C)C)C(=O)O)s1` (centres unmarked) [Example 77, 2-({[5-Ethyl-3-(4-trifluoromethoxy-benzoyl)-thiophen-2-ylcarbamoyl]-methyl}-amino)-4-methyl-pentanoic acid] belongs under 0.1 µM. `CCc1cc(C(=O)c2ccc(OC(F)(F)F)cc2)c(NC(=O)CNC2(C(=O)O)CCC2)s1` [Example 164, 1-({[5-Ethyl-3-(4-trifluoromethoxy-benzoyl)-thiophen-2-ylcarbamoyl]-methyl}-amino)-cyclobutanecarboxylic acid]: the EC50 (Table 2) was under 0.1 µM. As to `CCc1cc(C(=O)c2ccc(OC(F)(F)F)cc2)c(NC(=O)CN2CCCC2(C)C(=O)O)s1` (centres unmarked) [Example 173, 1-{[5-Ethyl-3-(4-trifluoromethoxy-benzoyl)-thiophen-2-ylcarbamoyl]-methyl}-2-methyl-pyrrolidine-2-carboxylic acid], the EC50 (Table 2) was 0.1 to 1 µM. With `CCc1cc(C(=O)c2ccc(OC(F)(F)F)cc2)c(NC(=O)c2ccc(OCC(=O)O)c(C)c2)s1` [Example 101, {4-[5-Ethyl-3-(4-trifluoromethoxy-benzoyl)-thiophen-2-ylcarbamoyl]-2-methyl-phenoxy}-acetic acid], the EC50 (Table 1) is under 0.1 µM.
